Measurements as given in PubChem BioAssay (NCI).
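Abbreviation: GI50, concentration required for 50% inhibition of growth. Definition used: TGI = concentration required for complete inhibition of growth.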

Columns and labels:
Experiment in all cases: growth of human tumour cells (NCI), 384-well format
[1] = system: 786-0 renal
[2] = system: A498 renal
[3] = system: A549 NSCLC
[4] = system: ACHN renal
[5] = system: BT-549 breast
[6] = system: CAKI-1 renal
[7] = system: CCRF-CEM leukemia
[8] = system: COLO 205 colon
[9] = system: DU-145 prostate
[10] = system: EKVX NSCLC
[11] = system: HCC-2998 colon
[12] = system: HCT-15 colon
[13] = system: HL-60(TB) leukemia
[14] = system: HOP-62 NSCLC
[15] = system: HOP-92 NSCLC
[16] = system: HS 578T breast
[17] = system: HT29 colon
[18] = system: IGROV1 ovarian
[19] = system: K-562 leukemia
[20] = system: KM12 colon
[21] = system: LOX IMVI melanoma
[22] = system: M14 melanoma
[23] = system: MALME-3M melanoma
[24] = system: MCF7 breast
[25] = system: MDA-MB-231 breast
[26] = system: MDA-MB-435 melanoma
[27] = system: MDA-MB-468 breast
[28] = system: MOLT-4 leukemia
[29] = system: NCI-H226 lung
[30] = system: NCI-H23 lung
[31] = system: NCI-H322M lung
[32] = system: NCI-H460 NSCLC
[33] = system: NCI-H522 lung
[34] = system: NCI/ADR-RES ovarian
[35] = system: OVCAR-3 ovarian
[36] = system: OVCAR-4 ovarian
[37] = system: OVCAR-5 ovarian
[38] = system: OVCAR-8 ovarian
[39] = system: PC-3 prostate
[40] = system: RPMI-8226 leukemia
[41] = system: RXF 393 renal
[42] = system: SF-268 CNS
[43] = system: SF-295 CNS
[44] = system: SF-539 CNS
[45] = system: SK-MEL-28 melanoma
[46] = system: SK-MEL-5 melanoma
[47] = system: SK-OV-3 ovarian
[48] = system: SN12C renal
[49] = system: SNB-19 CNS
[50] = system: SNB-75 CNS
[51] = system: SR leukemia
[52] = system: SW-620 colon
[53] = system: T-47D breast
[54] = system: TK-10 renal
[55] = system: UACC-257 melanoma
[56] = system: UACC-62 melanoma
[57] = system: UO-31 renal

Q: What does the source list for `CN1CCN(c2cc(C(=O)Nc3cc4cc(-c5cnn(C)c5)ccc4cn3)ccn2)CC1`?
A: GI50 [1]: 154 nM; TGI [1]: 316 nM; GI50 [2]: 32.8 nM; TGI [2]: 158 nM; GI50 [3]: 30.7 nM; TGI [3]: 129 nM; GI50 [4]: 47.5 nM; TGI [4]: 219 nM; GI50 [5]: 28.3 nM; TGI [5]: 71.4 nM; GI50 [6]: 35.3 nM; TGI [6]: 210 nM; GI50 [7]: 25.6 nM; TGI [7]: 53.5 nM; GI50 [8]: 26 nM; TGI [8]: 64.1 nM; GI50 [9]: 50.2 nM; TGI [9]: 282 nM; GI50 [10]: 62.5 nM; TGI [10]: 1600 nM; GI50 [11]: 105 nM; TGI [11]: 287 nM; GI50 [12]: 39.1 nM; TGI [12]: 157 nM; GI50 [13]: 99.4 nM; TGI [13]: 219 nM; GI50 [14]: 31.8 nM; TGI [14]: 145 nM; GI50 [15]: 39.6 nM; TGI [15]: 398 nM; GI50 [16]: 38.9 nM; TGI [16]: 152 nM; GI50 [17]: 138 nM; TGI [17]: 286 nM; GI50 [18]: 52.1 nM; TGI [18]: 255 nM; GI50 [19]: 52.8 nM; TGI [19]: 345 nM; GI50 [20]: 32.9 nM; TGI [20]: 209 nM; GI50 [21]: 51.7 nM; TGI [21]: 172 nM; GI50 [22]: 75.9 nM; TGI [22]: 221 nM; GI50 [23]: 84.6 nM; TGI [23]: 213 nM; GI50 [24]: 55.9 nM; TGI [24]: 221 nM; GI50 [25]: 87 nM; TGI [25]: 654 nM; GI50 [26]: 86.9 nM; TGI [26]: 283 nM; GI50 [27]: 26.8 nM; TGI [27]: 53.9 nM; GI50 [28]: 18 nM; TGI [28]: 33 nM; GI50 [29]: 131 nM; TGI [29]: 370 nM; GI50 [30]: 18.9 nM; TGI [30]: 47.5 nM; GI50 [31]: 68.2 nM; TGI [31]: 858 nM; GI50 [32]: 51 nM; TGI [32]: 190 nM; GI50 [33]: 26.6 nM; TGI [33]: 65.5 nM; GI50 [34]: 71.4 nM; TGI [34]: 244 nM; GI50 [35]: 30.2 nM; TGI [35]: 82.5 nM; GI50 [36]: 58.9 nM; TGI [36]: 187 nM; GI50 [37]: 167 nM; TGI [37]: 640 nM; GI50 [38]: 72.4 nM; TGI [38]: 302 nM; GI50 [39]: 76.7 nM; TGI [39]: 514 nM; GI50 [40]: 24.5 nM; TGI [40]: 49.1 nM; GI50 [41]: 118 nM; TGI [41]: 245 nM; GI50 [42]: 142 nM; TGI [42]: 438 nM; GI50 [43]: 99.8 nM; TGI [43]: 314 nM; GI50 [44]: 121 nM; TGI [44]: 322 nM; GI50 [45]: 125 nM; TGI [45]: 259 nM; GI50 [46]: 22.9 nM; TGI [46]: 92.2 nM; GI50 [47]: 28.1 nM; TGI [47]: 112 nM; GI50 [48]: 55.3 nM; TGI [48]: 228 nM; GI50 [49]: 41.6 nM; TGI [49]: 10200 nM; GI50 [50]: 105 nM; TGI [50]: 261 nM; GI50 [51]: 19.5 nM; TGI [51]: 40.8 nM; GI50 [52]: 33.6 nM; TGI [52]: 1580 nM; GI50 [53]: 67 nM; TGI [53]: 340 nM; GI50 [54]: 116 nM; TGI [54]: 442 nM; GI50 [55]: 36.3 nM; TGI [55]: 107 nM; GI50 [56]: 27.8 nM; TGI [56]: 88.7 nM; GI50 [57]: 158 nM; TGI [57]: 3160 nM
